# Inconclusive results and toxic doses are left out.
# System: CD2F1 mice, L1210 leukemia ip, survival T/C
# Experiment: NCI In Vivo Anticancer Drug Screen. Data for tumor model L1210 Leukemia (intraperitoneal) in CD2F1 (CDF1) mice
# Settings: higher = longer survival
# How it was run: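 Read-out first: treated-group measurement over vehicle-control measurement, expressed as a ratio. Animals bore a transplanted tumor line and were dosed with compound or vehicle.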
# [1] = endpoint: mean survival time, dose: 100.0 mg/kg/injection, schedule: Q04DX003 (ip), vehicle: saline with Tween-80
# [2] = endpoint: mean survival time, dose: 100.0 mg/kg/injection, schedule: Q01DX009 (ip), vehicle: saline with Tween-80
smiles,measurement,setting,value
CC(C)[C@]12O[C@H]1[C@@H]1O[C@]13[C@]1(O[C@H]1C[C@H]1C4=C(C(=O)OC4)[C@@H](O)C[C@@]13C)[C@@H]2O,T/C,"endpoint: mean survival time, dose: 0.8 micrograms/kg/injection, schedule: Q01DX009 (ip), vehicle: saline + alcohol",94 % of control
same,T/C,"endpoint: mean survival time, dose: 1.6 micrograms/kg/injection, schedule: Q01DX009 (ip), vehicle: saline + alcohol",92 % of control
same,T/C,"endpoint: mean survival time, dose: 3.1 micrograms/kg/injection, schedule: Q01DX009 (ip), vehicle: saline + alcohol",96 % of control
same,T/C,"endpoint: mean survival time, dose: 6.3 micrograms/kg/injection, schedule: Q01DX009 (ip), vehicle: saline + alcohol",92 % of control
same,T/C,"endpoint: mean survival time, dose: 12.5 micrograms/kg/injection, schedule: Q01DX009 (ip), vehicle: saline + alcohol",89 % of control
same,T/C,"endpoint: mean survival time, dose: 25.0 micrograms/kg/injection, schedule: Q01DX009 (ip), vehicle: saline + alcohol",93 % of control
same,T/C,"endpoint: mean survival time, dose: 32.0 micrograms/kg/injection, schedule: Q01DX009 (ip), vehicle: saline + alcohol",106 % of control
same,T/C,"endpoint: mean survival time, dose: 50.0 micrograms/kg/injection, schedule: Q01DX009 (ip), vehicle: saline + alcohol",107 % of control
same,T/C,"endpoint: mean survival time, dose: 63.0 micrograms/kg/injection, schedule: Q01DX009 (ip), vehicle: saline + alcohol",121 % of control
same,T/C,"endpoint: mean survival time, dose: 100.0 micrograms/kg/injection, schedule: Q01DX009 (ip), vehicle: saline + alcohol",115 % of control
same,T/C,"endpoint: mean survival time, dose: 200.0 micrograms/kg/injection, schedule: Q01DX009 (ip), vehicle: saline + alcohol",156 % of control
same,T/C,"endpoint: mean survival time, dose: 250.0 micrograms/kg/injection, schedule: Q01DX009 (ip), vehicle: saline + alcohol",188 % of control
same,T/C,"endpoint: mean survival time, dose: 400.0 micrograms/kg/injection, schedule: Q01DX009 (ip), vehicle: saline + alcohol",207 % of control
same,T/C,"endpoint: mean survival time, dose: 500.0 micrograms/kg/injection, schedule: Q01DX009 (ip), vehicle: saline + alcohol",93 % of control
same,T/C,"endpoint: median survival time, dose: 8.0 micrograms/kg/injection, schedule: Q03HX024 (ip), vehicle: saline + alcohol",111 % of control
same,T/C,"endpoint: median survival time, dose: 8.0 micrograms/kg/injection, schedule: Q03HX024 (ip), vehicle: saline",110 % of control
same,T/C,"endpoint: median survival time, dose: 16.0 micrograms/kg/injection, schedule: Q03HX016 (ip), vehicle: saline + alcohol",117 % of control
same,T/C,"endpoint: median survival time, dose: 30.0 micrograms/kg/injection, schedule: Q01DX009 (ip), vehicle: saline",109 % of control
same,T/C,"endpoint: median survival time, dose: 30.0 micrograms/kg/injection, schedule: Q01DX009 (sc), vehicle: saline",103 % of control
same,T/C,"endpoint: median survival time, dose: 31.2 micrograms/kg/injection, schedule: Q01DX009 (ip), vehicle: saline + alcohol",101 % of control
same,T/C,"endpoint: median survival time, dose: 31.2 micrograms/kg/injection, schedule: Q01DX009 (sc), vehicle: saline + alcohol",98 % of control
same,T/C,"endpoint: median survival time, dose: 31.2 micrograms/kg/injection, schedule: Q03HX024 (ip), vehicle: saline + alcohol",151 % of control
same,T/C,"endpoint: median survival time, dose: 60.0 micrograms/kg/injection, schedule: Q01DX009 (sc), vehicle: saline",102 % of control
same,T/C,"endpoint: median survival time, dose: 60.0 micrograms/kg/injection, schedule: Q03HX024 (ip), vehicle: saline",191 % of control
same,T/C,"endpoint: median survival time, dose: 62.0 micrograms/kg/injection, schedule: Q03HX008 (ip), vehicle: saline + alcohol",123 % of control
same,T/C,"endpoint: median survival time, dose: 62.5 micrograms/kg/injection, schedule: Q01DX009 (ip), vehicle: saline + alcohol",122 % of control
same,T/C,"endpoint: median survival time, dose: 62.5 micrograms/kg/injection, schedule: Q01DX009 (sc), vehicle: saline + alcohol",104 % of control
same,T/C,"endpoint: median survival time, dose: 62.5 micrograms/kg/injection, schedule: Q03HX016 (ip), vehicle: saline + alcohol",118 % of control
same,T/C,"endpoint: median survival time, dose: 62.5 micrograms/kg/injection, schedule: Q03HX024 (ip), vehicle: saline + alcohol",166 % of control
same,T/C,"endpoint: median survival time, dose: 62.5 micrograms/kg/injection, schedule: Q04DX003 (ip), vehicle: saline + alcohol",97 % of control
same,T/C,"endpoint: median survival time, dose: 125.0 micrograms/kg/injection, schedule: Q01DX009 (sc), vehicle: saline + alcohol",104 % of control
same,T/C,"endpoint: median survival time, dose: 125.0 micrograms/kg/injection, schedule: Q03HX008 (ip), vehicle: saline + alcohol",118 % of control
same,T/C,"endpoint: median survival time, dose: 125.0 micrograms/kg/injection, schedule: Q03HX016 (ip), vehicle: saline + alcohol",111 % of control
same,T/C,"endpoint: median survival time, dose: 125.0 micrograms/kg/injection, schedule: Q03HX024 (ip), vehicle: saline + alcohol",120 % of control
same,T/C,"endpoint: median survival time, dose: 125.0 micrograms/kg/injection, schedule: Q04DX003 (ip), vehicle: saline + alcohol",101 % of control
same,T/C,"endpoint: median survival time, dose: 125.0 micrograms/kg/injection, schedule: Q08DX002 (ip), vehicle: saline + alcohol",98 % of control
same,T/C,"endpoint: median survival time, dose: 130.0 micrograms/kg/injection, schedule: Q01DX009 (ip), vehicle: saline",151 % of control
same,T/C,"endpoint: median survival time, dose: 130.0 micrograms/kg/injection, schedule: Q01DX009 (sc), vehicle: saline",109 % of control
same,T/C,"endpoint: median survival time, dose: 250.0 micrograms/kg/injection, schedule: Q01DX001 (ip), vehicle: saline + alcohol",113 % of control
same,T/C,"endpoint: median survival time, dose: 250.0 micrograms/kg/injection, schedule: Q01DX001 (sc), vehicle: saline + alcohol",104 % of control
same,T/C,"endpoint: median survival time, dose: 250.0 micrograms/kg/injection, schedule: Q01DX009 (ip), vehicle: saline + alcohol",184 % of control
same,T/C,"endpoint: median survival time, dose: 250.0 micrograms/kg/injection, schedule: Q01DX009 (ip), vehicle: saline",203 % of control
same,T/C,"endpoint: median survival time, dose: 250.0 micrograms/kg/injection, schedule: Q01DX009 (sc), vehicle: saline",152 % of control
same,T/C,"endpoint: median survival time, dose: 250.0 micrograms/kg/injection, schedule: Q04DX003 (ip), vehicle: saline + alcohol",113 % of control
same,T/C,"endpoint: median survival time, dose: 250.0 micrograms/kg/injection, schedule: Q08DX002 (ip), vehicle: saline + alcohol",109 % of control
same,T/C,"endpoint: median survival time, dose: 500.0 micrograms/kg/injection, schedule: Q01DX001 (ip), vehicle: saline + alcohol",109 % of control
same,T/C,"endpoint: median survival time, dose: 500.0 micrograms/kg/injection, schedule: Q01DX001 (sc), vehicle: saline + alcohol",107 % of control
same,T/C,"endpoint: median survival time, dose: 500.0 micrograms/kg/injection, schedule: Q01DX009 (ip), vehicle: saline + alcohol",239 % of control
same,T/C,"endpoint: median survival time, dose: 500.0 micrograms/kg/injection, schedule: Q01DX009 (ip), vehicle: saline",255 % of control
same,T/C,"endpoint: median survival time, dose: 500.0 micrograms/kg/injection, schedule: Q01DX009 (sc), vehicle: saline + alcohol",193 % of control
same,T/C,"endpoint: median survival time, dose: 500.0 micrograms/kg/injection, schedule: Q01DX009 (sc), vehicle: saline",87 % of control
same,T/C,"endpoint: median survival time, dose: 500.0 micrograms/kg/injection, schedule: Q04DX003 (ip), vehicle: saline + alcohol",122 % of control
same,T/C,"endpoint: median survival time, dose: 500.0 micrograms/kg/injection, schedule: Q08DX002 (ip), vehicle: saline + alcohol",108 % of control
same,T/C,"endpoint: median survival time, dose: 1000.0 micrograms/kg/injection, schedule: Q01DX001 (ip), vehicle: saline + alcohol",109 % of control
same,T/C,"endpoint: median survival time, dose: 1000.0 micrograms/kg/injection, schedule: Q04DX003 (ip), vehicle: saline + alcohol",115 % of control
same,T/C,"endpoint: median survival time, dose: 1000.0 micrograms/kg/injection, schedule: Q08DX002 (ip), vehicle: saline + alcohol",97 % of control
CCOC(=O)Nc1cnc2nc[nH]c2c1N(C)C,T/C,"endpoint: mean survival time, dose: 100.0 mg/kg/injection, schedule: Q01DX001 (ip), vehicle: carboxymethylcellulose (CMC)",104 % of control
same,T/C,"endpoint: mean survival time, dose: 200.0 mg/kg/injection, schedule: Q01DX001 (ip), vehicle: carboxymethylcellulose (CMC)",104 % of control
same,T/C,"endpoint: mean survival time, dose: 400.0 mg/kg/injection, schedule: Q01DX001 (ip), vehicle: carboxymethylcellulose (CMC)",124 % of control
Nc1nnnc2c1ncn2C1OC(CO)C(O)C1O (stereo not given),T/C,"endpoint: mean survival time, dose: 300.0 mg/kg/injection, schedule: Q01DX001 (ip), vehicle: saline",121 % of control
COc1ccc(CC(=O)Nc2ccc(OC)c(OC)c2)cc1OC,T/C,"endpoint: mean survival time, dose: 12.5 mg/kg/injection, schedule: Q01DX009 (ip), vehicle: water",96 % of control
same,T/C,"endpoint: mean survival time, dose: 25.0 mg/kg/injection, schedule: Q01DX009 (ip), vehicle: water",98 % of control
same,T/C,"endpoint: mean survival time, dose: 50.0 mg/kg/injection, schedule: Q01DX009 (ip), vehicle: water",96 % of control
same,T/C,"endpoint: mean survival time, dose: 100.0 mg/kg/injection, schedule: Q01DX009 (ip), vehicle: water",95 % of control
same,T/C,"endpoint: mean survival time, dose: 200.0 mg/kg/injection, schedule: Q01DX009 (ip), vehicle: water",96 % of control
NNC(=O)c1ccc([N+](=O)[O-])o1,T/C,"endpoint: mean survival time, dose: 37.5 mg/kg/injection, schedule: Q01DX009 (ip), vehicle: saline with Tween-80",97 % of control
same,T/C,[1],110 % of control
[Cl][Pt+2][Cl].[NH-]CCc1ccccc1.[NH-]CCc1ccccc1,T/C,"endpoint: mean survival time, dose: 12.5 mg/kg/injection, schedule: Q04DX003 (ip), vehicle: saline with Tween-80",103 % of control
same,T/C,"endpoint: mean survival time, dose: 25.0 mg/kg/injection, schedule: Q04DX003 (ip), vehicle: saline with Tween-80",106 % of control
same,T/C,"endpoint: mean survival time, dose: 50.0 mg/kg/injection, schedule: Q04DX003 (ip), vehicle: saline with Tween-80",106 % of control
same,T/C,[1],103 % of control
same,T/C,"endpoint: mean survival time, dose: 200.0 mg/kg/injection, schedule: Q04DX003 (ip), vehicle: saline with Tween-80",117 % of control
O=C1NC(=O)C(c2ccc(Cl)cc2)N1 (stereo not given),T/C,[2],93 % of control
same,T/C,"endpoint: mean survival time, dose: 200.0 mg/kg/injection, schedule: Q01DX009 (ip), vehicle: saline with Tween-80",105 % of control
same,T/C,"endpoint: mean survival time, dose: 400.0 mg/kg/injection, schedule: Q01DX009 (ip), vehicle: saline with Tween-80",104 % of control
CCn1cnc(-c2ccccc2)c1-c1ccccc1,T/C,"endpoint: mean survival time, dose: 25.0 mg/kg/injection, schedule: Q01DX009 (ip), vehicle: saline with Tween-80",110 % of control
same,T/C,"endpoint: mean survival time, dose: 50.0 mg/kg/injection, schedule: Q01DX009 (ip), vehicle: saline with Tween-80",107 % of control
same,T/C,[2],98 % of control
same,T/C,[1],101 % of control
C[S+]1C=C(c2ccccc2)C=C(c2ccccc2)C1 (stereo not given),T/C,"endpoint: mean survival time, dose: 7.5 mg/kg/injection, schedule: Q01DX001 (ip), vehicle: saline with Tween-80",114 % of control

# Reference: PubChem BioAssay AID256 (DTP/NCI, 2004)
